Assay results: paper PMC12535076, “Neurotherapeutic effects of Vutiglabridin as a Paraoxonase-2 modulator in preclinical models of Parkinson’s disease” (Molecular Neurodegeneration, 2025)
Blank lines part the entries; values can stand above or below the molecule they belong to.

Experiments:
MAO-B [1] = target: T1, MAO-B (Homo sapiens, UniProt P27338); assay: HRP/Amplex red based MAO-B enzyme activity assay; format: biochemical; conditions: read-out: IC50, MAO-B assay, HRP/AR method
T1 sequence (P27338 1-520): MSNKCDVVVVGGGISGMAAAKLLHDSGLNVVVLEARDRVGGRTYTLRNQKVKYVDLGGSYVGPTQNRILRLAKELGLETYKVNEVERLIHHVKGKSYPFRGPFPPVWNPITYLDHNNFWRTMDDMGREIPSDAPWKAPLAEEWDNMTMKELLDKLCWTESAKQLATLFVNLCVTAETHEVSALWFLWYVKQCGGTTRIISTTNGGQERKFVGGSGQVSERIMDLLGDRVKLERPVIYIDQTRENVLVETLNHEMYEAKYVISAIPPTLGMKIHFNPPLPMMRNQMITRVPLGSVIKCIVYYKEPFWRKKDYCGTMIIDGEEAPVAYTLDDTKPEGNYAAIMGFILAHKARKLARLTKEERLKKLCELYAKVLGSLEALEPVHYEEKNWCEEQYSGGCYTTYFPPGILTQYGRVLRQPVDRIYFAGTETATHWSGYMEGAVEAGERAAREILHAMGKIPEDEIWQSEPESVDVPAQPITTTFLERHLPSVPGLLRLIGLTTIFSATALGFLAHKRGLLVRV
Procedure: (§1) MAO-A or MAO-B enzyme solutions were prepared by diluting 10 µL of a 2.5 mg/mL MAO-A or MAO-B stock into 10 mL of 50 mM sodium phosphate buffer (pH 7.4). A substrate assay mixture was then prepared by combining benzylamine (for MAO-B) or tyramine (for MAO-A) from a 100 mM stock (200 µL in 10 mL phosphate buffer, final concentration 1 mM) with 100 µL of a 20 mM AR reagent stock (final concentration 0.1 mM) and 100 µL of a 200 U/mL HRP stock (final concentration 1 U/mL) in 10 mL phosphate buffer. […] Next, 50 µL of the substrate assay mixture was added, and the reaction was carried out at 37 °C for 60 min. The production of resorufin was quantified by fluorescence measurement (excitation at 540 nm and emission at 580 nm).

MAO-B [2] = target: T1, MAO-B; assay: ROS Glo based MAO-B enzyme activity assay; format: biochemical; conditions: read-out: IC50, MAO-B assay, ROS-Glo method
Procedure: An enzyme solution was prepared by diluting 10 µL of a 2.5 mg/mL MAO-A or MAO-B stock in 10 mL of 50 mM sodium phosphate buffer (pH 7.4). A substrate solution was prepared by diluting 200 µL of a 100 mM benzylamine (or tyramine) stock in 10 mL phosphate buffer to achieve a final concentration of 1 mM. For each 96-well plate experiment, 12.5 µL of a 1× H2O2 probe solution was added to 1 mL of the probe dilution buffer from the ROS Glo™ kit. Separately, 40 µL of cysteine and enhancer were diluted into 4 mL of Luciferin solution. In each well, 49 µL of the enzyme solution was dispensed, followed by 1 µL of the test compound, and incubated for 30 min. […] Next, 10 µL of the H2O2 probe solution was added and incubated for 15 min. […] Luminescence was subsequently recorded using a microplate luminescence reader (SpectraMax i3, Molecular Devices).

MAO-A [3] = target: T2, MAO-A (Homo sapiens, UniProt P21397); assay: HRP/Amplex red based MAO-A enzyme activity assay; format: biochemical; conditions: read-out: IC50, MAO-A assay, HRP/AR method
T2 sequence (P21397 1-527): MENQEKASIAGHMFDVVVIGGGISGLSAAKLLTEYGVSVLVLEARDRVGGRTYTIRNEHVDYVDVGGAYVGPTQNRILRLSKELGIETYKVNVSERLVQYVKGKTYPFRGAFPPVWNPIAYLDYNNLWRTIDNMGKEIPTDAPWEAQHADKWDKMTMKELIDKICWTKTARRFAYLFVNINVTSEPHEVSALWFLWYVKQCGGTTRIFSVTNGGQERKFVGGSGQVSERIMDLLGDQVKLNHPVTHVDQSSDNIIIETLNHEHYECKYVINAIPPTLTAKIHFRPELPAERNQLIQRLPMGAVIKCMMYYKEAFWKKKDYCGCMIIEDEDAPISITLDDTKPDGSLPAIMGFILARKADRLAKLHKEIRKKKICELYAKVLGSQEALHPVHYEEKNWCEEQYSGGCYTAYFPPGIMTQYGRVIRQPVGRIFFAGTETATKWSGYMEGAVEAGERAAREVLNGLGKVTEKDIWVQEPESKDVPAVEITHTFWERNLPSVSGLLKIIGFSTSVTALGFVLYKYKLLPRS
Procedure: as §1

MAO-A [4] = target: T2, MAO-A; assay: ROS Glo based MAO-A enzyme activity assay; format: biochemical; conditions: printed as 'separate MAO-B assay' within the MAO-A panel (b); read-out: IC50, ROS-Glo method, panel (b)
Procedure: An enzyme solution was prepared by diluting 10 µL of a 2.5 mg/mL MAO-A or MAO-B stock in 10 mL of 50 mM sodium phosphate buffer (pH 7.4). A substrate solution was prepared by diluting 200 µL of a 100 mM benzylamine (or tyramine) stock in 10 mL phosphate buffer to achieve a final concentration of 1 mM. For each 96-well plate experiment, 12.5 µL of a 1× H2O2 probe solution was added to 1 mL of the probe dilution buffer from the ROS Glo™ kit. Separately, 40 µL of cysteine and enhancer were diluted into 4 mL of Luciferin solution. In each well, 49 µL of the enzyme solution was dispensed, followed by 1 µL of the test compound, and incubated for 30 min. Then, 49 µL of the substrate solution was added, and the reaction proceeded at 37 °C for 60 min. Next, 10 µL of the H2O2 probe solution was added and incubated for 15 min. Subsequently, 40 µL of a luciferin solution containing cysteine and an enhancer was added, followed by an additional 30-minute incubation at 37 °C. Luminescence was subsequently recorded using a microplate luminescence reader (SpectraMax i3, Molecular Devices).

[5] = tested on: MPTP-injected C57BL/6 mice; assay: MPTP-injected sub-acute PD mouse model (pole test, rotarod, TH immunohistochemistry); format: in vivo
Procedure: Animals were allowed at least 1 week of acclimatization before being subjected to the study and were housed in a regulated environment with a 12-h/12-h light/dark cycle. Food and water were provided ad libitum. The animal experiment was carried out in accordance with the National Institutes of Health Guide for the Care and Use of Laboratory Animals (NIH Publications No. 80–23; revised 1996). All procedures for handling mice were carried out in accordance with “Principles of Laboratory Animal Care” and the Animal Care and Use guidelines of Kyung Hee University, Seoul, Korea (KHSASP-20-163).
MPTP was dissolved in distilled water and injected intraperitoneally for five days from day 10 of the 21-day experiment period. Vuti or rasagiline was administered via oral gavage for 21 days. Vehicles for both Vuti and MPTP (distilled water) were administered to all mice. Mice were randomly divided for all studies. For the first set of studies shown in Fig. 3, each group consisted of 5 animals.
To determine forelimb and hindlimb motor coordination and balance, we performed the rotarod test as described previously. Also, the pole test was performed to measure bradykinesia. For the rotarod test, the animals were pre-trained on the rotating bar of a rotarod unit set (LE 8500, Letica, Spain) on days 18 and 19 before the test on day 20. During pre-training, three trials per day were performed (5 rpm rotation speed on the first day, 15 rpm rotation speed on the second day). Mice were kept on the rotating bar (7.3-cm diameter) for 5 min on each trial. On day 20, the time spent on the rotating bar at 20 rpm, which was defined as the latent period, was recorded. Performance was recorded as 300 s if the latent period exceeded 300 s. Mice had at least 5 min of rest between trials to reduce stress and fatigue. Each animal underwent three test trials, and the mean of the test results was subjected to statistical analysis. For the pole test, mice were held on the top of the pole (diameter 8 mm, height 55 cm, with a rough surface). The time to land down and place four fee on the floor was recorded as the time for locomotion activity (T-LA).
On day 21, mice were anesthetized with sodium pentobarbital (50 mg/kg intraperitoneally) and transcardially perfused with saline containing 0.5% sodium nitrate and heparin (10 U/mL) and then fixed with 4% PFA in 0.1 M phosphate-buffer (PB, pH 7.2). Dissected brains were post-fixed overnight in buffered 4% PFA at 4 °C and stored in a 30% sucrose solution until they sank. Brains were cryosectioned into 30 μm thick coronal sections in a Cryostat (Microsystems AG, Leica, Wetzlar, Germany) and stored until use at 4℃ in a cryoprotectant (25% ethylene glycol, 25% glycerol, 0.2 M PB, and water). All sections were collected in six separate series and processed for immunostaining.
Free-floating brain sections were processed with the avidin-biotin peroxidase complex (ABC) complex (Vector Laboratories, Burlingame, CA, USA) method. Briefly, brain sections were incubated with primary rabbit anti-TH antibodies (1:1000; Pel-Freez Biologicals, Rogers, AR, USA) overnight at 4 °C, with biotinylated anti-rabbit IgG (1:400) for 1 h at room temperature, and then with the ABC solution (1:1:200) for 1 h at room temperature. The immunoperoxidase signals of TH was detected by incubating sections with 0.5 mg/ml 3,3′-diaminobenzidine (Sigma, St. Louis, MO, USA) in 0.1 M PB containing 0.003% H2O2. Stained brain sections were mounted on gelatin-coated slides and imaged under a bright-field microscope (Olympus Optical, Tokyo, Japan). TH-positivity in the ST was measured by the optical density of TH-positive fibers at x40 magnification using ImageJ software (National Institutes of Health, Bethesda, MD, USA). TH-positive cells in the SNpc in brain tissue Sect. (5 sections/series) were counted at x100 magnification as previously described. […]

[6] = MPTP mice, Vuti 1, 50, 100 mg/kg/day or rasagiline 0.1 mg/kg/day orally for 21 days

IC50 (MAO-B [1]): 7.29 µM
IC50 (MAO-B [2]): 15.4 µM
IC50 (MAO-A [3]): 26.8 µM
IC50 (MAO-A [4]): 12 µM
SMILES: CC1(C)C=Cc2c(ccc3c2OC[C@@H](c2ccc(O)cc2O)C3)O1 [Glabridin]

SMILES: CN1CC=C(c2ccccc2)CC1 [MPTP, 1-methyl-4-phenyl-1,2,3,6-tetrahydropyridine, reference compound]
latency time to reach the floor (T-LA) in the pole test ([5]; MPTP 30 mg/kg/day i.p. for 5 days, no drug, vs 5.2 ± 0.9 s vehicle-only): 9.6 ± 2.1 s
latency to fall in the rotarod test ([5]; MPTP 30 mg/kg/day i.p. for 5 days, no drug, vs 196.4 ± 77.3 s vehicle-only): 63.5 ± 34.5 s

SMILES: C#CCN[C@@H]1CCc2ccccc21 [rasagiline, Rasagiline, reference compound]
effect on T-LA in the pole test [5, 6]: significantly normalized
effect on latency to fall in the rotarod test [5, 6]: significantly normalized
